Structures are written as SMILES.

This note sets out measurements from patent US7012081B2, “Anthranyl amides and their use as medicaments” (Schering AG, priority 2000, dated 2006).

For one series, the target named is VEGFR II (KDR) (Homo sapiens, UniProt P35968). Put plainly: Inhibition of the KDR kinase activity (33P-ATP / poly-(Glu4Tyr) phosphocellulose filter assay). The class given is biochemical. Particulars: substrate poly-(Glu4Tyr), 10 minutes at room temperature. As for the experimental part: • Stock solution A: 3 mmol of ATP in water, pH 7.0 (−70° C.) • Stock solution B: g-33P-ATP 1 mCi/100 μl • Stock solution C: poly-(Glu4 Tyr) 10 mg/ml in water Solution for Dilutions • Substrate solvent: 10 mmol of DTT, 10 mmol of manganese chloride, 100 mmol of magnesium chloride • Enzyme solution: 120 mmol of tris/HCl, pH 7.5, 10 μM of sodium vanadium oxide Sample Application 1 Inhibition of the KDR- and FLT-1 Kinase Activity in the Presence of the Compounds According to the Invention
In a microtiter plate (without protein binding) that tapers to a point, 10 μl of substrate mix (10 μl of volume of ATP stock solution A+25 μCi of g-33P-ATP (about 2.5 μl of stock solution B)+30 μl of poly-(Glu4Tyr) stock solution C+1.21 ml of substrate solvent), 10 μl of inhibitor solution (substances corresponding to the dilutions, 3% DMSO in substrate solvent as a control) and 10 μl of enzyme solution (11.25 μg of enzyme stock solution (KDR or FLT-1 kinase) are added at 4° C. in 1.25 ml of enzyme solution (dilute). It is thoroughly mixed and incubated for 10 minutes at room temperature. Then, 10 μl of stop solution (250 mmol of EDTA, pH 7.0) is added, mixed, and 10 μl of the solution is transferred to a P 81 phosphocellulose filter. Then, it is washed several times in 0.1 M phosphoric acid. The filter paper is dried, coated with Meltilex and measured in a microbeta counter. […]

VEGFR II (KDR), sequence (P35968 20-1356, species assumed): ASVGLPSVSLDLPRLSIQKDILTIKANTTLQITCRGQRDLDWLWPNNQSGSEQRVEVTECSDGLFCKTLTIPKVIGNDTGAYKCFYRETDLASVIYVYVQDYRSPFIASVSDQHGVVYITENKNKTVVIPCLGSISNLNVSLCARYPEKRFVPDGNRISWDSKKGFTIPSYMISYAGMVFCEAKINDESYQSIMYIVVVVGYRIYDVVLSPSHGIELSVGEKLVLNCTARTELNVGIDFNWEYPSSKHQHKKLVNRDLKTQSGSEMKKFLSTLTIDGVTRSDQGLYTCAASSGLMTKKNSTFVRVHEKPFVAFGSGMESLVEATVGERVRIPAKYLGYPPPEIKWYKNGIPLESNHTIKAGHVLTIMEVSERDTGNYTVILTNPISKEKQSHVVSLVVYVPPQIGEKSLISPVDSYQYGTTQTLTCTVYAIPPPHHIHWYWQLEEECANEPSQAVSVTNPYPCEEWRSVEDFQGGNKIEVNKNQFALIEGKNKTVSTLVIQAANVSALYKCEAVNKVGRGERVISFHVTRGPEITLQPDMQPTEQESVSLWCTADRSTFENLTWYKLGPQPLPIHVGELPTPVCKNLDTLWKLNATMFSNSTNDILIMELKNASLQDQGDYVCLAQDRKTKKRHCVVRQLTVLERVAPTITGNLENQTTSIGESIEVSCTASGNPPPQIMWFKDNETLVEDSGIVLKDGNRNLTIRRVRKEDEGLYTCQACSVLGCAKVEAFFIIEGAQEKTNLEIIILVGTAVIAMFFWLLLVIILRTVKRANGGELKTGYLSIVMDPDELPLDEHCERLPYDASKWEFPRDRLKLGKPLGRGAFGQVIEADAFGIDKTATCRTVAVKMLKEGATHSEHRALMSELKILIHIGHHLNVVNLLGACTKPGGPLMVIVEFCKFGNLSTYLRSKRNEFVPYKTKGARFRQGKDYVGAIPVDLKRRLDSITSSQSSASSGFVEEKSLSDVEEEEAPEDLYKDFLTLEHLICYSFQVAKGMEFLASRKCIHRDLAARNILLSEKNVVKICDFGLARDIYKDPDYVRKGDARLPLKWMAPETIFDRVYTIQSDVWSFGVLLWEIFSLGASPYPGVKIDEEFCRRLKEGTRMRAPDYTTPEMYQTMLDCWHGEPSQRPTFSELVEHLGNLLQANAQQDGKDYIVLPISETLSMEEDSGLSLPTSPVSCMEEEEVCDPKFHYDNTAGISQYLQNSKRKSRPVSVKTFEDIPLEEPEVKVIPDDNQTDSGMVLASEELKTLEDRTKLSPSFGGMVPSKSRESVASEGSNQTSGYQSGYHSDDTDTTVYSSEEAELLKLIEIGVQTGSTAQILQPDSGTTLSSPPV

The compound `O=C(Nc1cc2ccccc2cn1)c1ccccc1NCC1CCOCC1` [Example 1.1] gave a melting point of 140.4 °C. Besides, the IC50 on VEGFR II (KDR) turned out to be 0.05 µM.

For `O=C1CCC(CNc2ccccc2C(=O)Nc2cc3ccccc3cn2)CC1` [Example 2.0], on VEGFR II (KDR), the IC50 came out at 0.02 µM.
